Measured values published in ChEMBL document CHEMBL2311454, “Discovery and evaluation of novel inhibitors of mycobacterium protein tyrosine phosphatase B from the 6-Hydroxy-benzofuran-5-carboxylic acid scaffold” (J Med Chem, 2013).
Active and inactive are the calls of the source. The rule behind the calls is not given here.

What was measured:
[1] = target: T1, Tyrosine-protein phosphatase non-receptor type 22 (Homo sapiens, UniProt Q9Y2R2); assay: Inhibition of LYP (unknown origin) expressed in Escherichia coli using pNPP substrate after 5 mins by spectrophotometric analysis
T1 sequence (Q9Y2R2 whole entry): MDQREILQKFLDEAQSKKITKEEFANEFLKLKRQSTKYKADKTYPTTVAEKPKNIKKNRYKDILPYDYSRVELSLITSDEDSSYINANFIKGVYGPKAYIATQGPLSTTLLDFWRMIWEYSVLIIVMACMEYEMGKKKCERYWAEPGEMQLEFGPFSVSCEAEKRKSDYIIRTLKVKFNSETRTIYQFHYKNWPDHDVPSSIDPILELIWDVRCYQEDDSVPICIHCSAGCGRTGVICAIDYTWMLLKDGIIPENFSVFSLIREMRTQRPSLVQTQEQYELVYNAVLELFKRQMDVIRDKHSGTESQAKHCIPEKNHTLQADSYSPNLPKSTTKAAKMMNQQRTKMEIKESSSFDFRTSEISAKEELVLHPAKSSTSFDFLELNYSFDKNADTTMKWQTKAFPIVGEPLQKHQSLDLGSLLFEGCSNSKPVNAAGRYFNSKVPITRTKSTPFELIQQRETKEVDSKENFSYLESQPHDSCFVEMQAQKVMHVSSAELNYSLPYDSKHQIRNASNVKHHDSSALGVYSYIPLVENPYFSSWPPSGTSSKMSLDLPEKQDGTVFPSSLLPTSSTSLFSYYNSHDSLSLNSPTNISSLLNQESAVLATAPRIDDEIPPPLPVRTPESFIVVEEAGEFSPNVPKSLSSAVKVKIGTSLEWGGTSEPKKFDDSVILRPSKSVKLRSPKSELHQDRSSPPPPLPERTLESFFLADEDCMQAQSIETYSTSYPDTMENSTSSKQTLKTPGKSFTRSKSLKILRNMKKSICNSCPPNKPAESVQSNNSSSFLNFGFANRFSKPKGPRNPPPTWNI

[2] = target: T2, Tyrosine-protein phosphatase non-receptor type 11 (Homo sapiens, UniProt Q06124); assay: Inhibition of SHP2 (unknown origin) expressed in Escherichia coli using pNPP substrate after 5 mins by spectrophotometric analysis
T2 sequence (Q06124 whole entry): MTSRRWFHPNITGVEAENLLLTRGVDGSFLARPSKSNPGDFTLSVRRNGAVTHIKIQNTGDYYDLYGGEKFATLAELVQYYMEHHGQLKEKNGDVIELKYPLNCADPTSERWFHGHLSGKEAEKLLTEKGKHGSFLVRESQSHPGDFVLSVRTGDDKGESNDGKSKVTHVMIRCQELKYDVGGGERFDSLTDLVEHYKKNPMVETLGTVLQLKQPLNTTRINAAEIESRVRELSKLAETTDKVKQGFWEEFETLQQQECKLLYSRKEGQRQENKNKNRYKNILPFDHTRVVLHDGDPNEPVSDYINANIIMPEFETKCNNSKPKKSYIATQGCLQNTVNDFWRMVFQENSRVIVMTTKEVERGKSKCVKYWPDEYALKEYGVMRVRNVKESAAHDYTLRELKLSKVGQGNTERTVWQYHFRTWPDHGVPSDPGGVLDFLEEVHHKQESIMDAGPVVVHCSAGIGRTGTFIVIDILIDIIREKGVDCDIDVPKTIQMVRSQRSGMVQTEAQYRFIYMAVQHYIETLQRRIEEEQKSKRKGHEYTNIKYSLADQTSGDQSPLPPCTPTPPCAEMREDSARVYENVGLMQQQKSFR

[3] = target: Tyrosine-protein phosphatase non-receptor type 6 (Homo sapiens, UniProt P29350); assay: Inhibition of SHP1 (unknown origin) expressed in Escherichia coli using pNPP substrate after 5 mins by spectrophotometric analysis
Tyrosine-protein phosphatase non-receptor type 6, sequence (P29350 whole entry): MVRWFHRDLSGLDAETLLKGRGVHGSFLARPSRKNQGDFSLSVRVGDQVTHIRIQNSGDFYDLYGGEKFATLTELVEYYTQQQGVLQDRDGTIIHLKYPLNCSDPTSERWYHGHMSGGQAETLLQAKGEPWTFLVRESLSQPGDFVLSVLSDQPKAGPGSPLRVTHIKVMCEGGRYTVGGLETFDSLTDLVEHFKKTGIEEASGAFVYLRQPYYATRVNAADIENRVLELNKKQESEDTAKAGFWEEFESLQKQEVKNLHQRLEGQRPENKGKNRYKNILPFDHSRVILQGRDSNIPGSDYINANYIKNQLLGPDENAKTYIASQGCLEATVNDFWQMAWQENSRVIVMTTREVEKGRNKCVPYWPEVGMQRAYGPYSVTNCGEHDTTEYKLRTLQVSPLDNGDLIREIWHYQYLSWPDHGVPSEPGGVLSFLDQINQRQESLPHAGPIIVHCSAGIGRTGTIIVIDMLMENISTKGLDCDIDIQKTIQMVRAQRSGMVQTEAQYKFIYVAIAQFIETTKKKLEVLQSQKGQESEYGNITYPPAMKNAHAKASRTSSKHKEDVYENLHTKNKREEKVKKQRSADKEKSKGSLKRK

[4] = Inhibition of Mycobacterium tuberculosis PTPB expressed in Escherichia coli using pNPP substrate after 5 mins by spectrophotometric analysis
RAW264.7 [5] = assay: Inhibition of Mycobacterium tuberculosis PTPB expressed in mouse RAW264.7 macrophages assessed as induction of apoptosis after 1 hr by annexin V-FITC /propidium iodide staining-based flow cytometric analysis; format: cell-based
RAW264.7 [6] = assay: Inhibition of Mycobacterium tuberculosis PTPB expressed in mouse RAW264.7 macrophages assessed as increase in caspase activity after 1 hr by spectrophotometric analysis; format: cell-based
RAW264.7 [7] = assay: Inhibition of Mycobacterium tuberculosis PTPB expressed in mouse RAW264.7 macrophages assessed as decrease in Akt activity after 1 hr by Western blotting analysis; format: cell-based
[8] = system: Mycobacterium tuberculosis; assay: Inhibition of Mycobacterium tuberculosis PTPB expressed in mouse RAW264.7 macrophages assessed as restoration of IFNgamma-induced IL-6 production after 1 hr by ELISA
[9] = system: Mycobacterium tuberculosis; assay: Inhibition of Mycobacterium tuberculosis PTPB expressed in mouse RAW264.7 macrophages assessed as restoration of IFNgamma-induced p38 activation after 1 hr by Western blotting analysis
[10] = system: Mycobacterium tuberculosis; assay: Inhibition of Mycobacterium tuberculosis PTPB expressed in mouse RAW264.7 macrophages assessed as restoration of IFNgamma-induced ERK1/2 activation after 1 hr by Western blotting analysis

Row | Compound | IC50 [1] | IC50 [2] | IC50 [3] | IC50 [4] | inhibition (RAW264.7 [5]) | inhibition (RAW264.7 [6]) | inhibition (RAW264.7 [7]) | inhibition [8] | inhibition [9] | inhibition [10]
1 | O=C(O)c1cc2c(CCc3cccc(C(F)(F)F)c3)c(-c3ccccc3)oc2cc1O | 3.5 µM | 4.5 µM |  |  |  |  |  |  |  | 
2 | O=C(O)c1cc2c(CCc3cccc(F)c3)c(-c3ccccc3)oc2cc1O | 12.4 µM | 10.9 µM | 11.5 µM |  |  |  |  |  |  | 
3 | C[C@]12CCC(=O)C=C1CC[C@@H]1[C@@H]2CC[C@@]2(C)[C@H]1CC[C@]2(O)C#Cc1c(-c2ccccc2)oc2cc(O)c(C(=O)O)cc12 | 12.2 µM | 30 µM | > 100 µM | 5.09 µM |  |  |  |  |  | 
4 | O=C(O)c1cc2c(CCc3ccc(Oc4ccccc4)cc3)c(-c3ccccc3)oc2cc1O | 2.2 µM | 3.6 µM | 3.7 µM |  |  |  |  |  |  | 
5 | O=C(O)c1cc2c(CCc3ccc(OC(F)(F)F)cc3)c(-c3ccccc3)oc2cc1O | 4.1 µM |  | 7.1 µM | 3.4 µM | inactive | inactive | inactive | inactive | inactive | inactive
6 | O=C(O)c1cc2c(/C=C\c3cc(F)cc(F)c3)c(-c3ccccc3)oc2cc1O | 3.7 µM | 5 µM |  | 1.2 µM |  |  |  |  |  | 
7 | O=C(O)c1cc2c(C#CCO)c(-c3ccccc3)oc2cc1O | > 100 µM | > 100 µM | > 100 µM | 22 µM |  |  |  |  |  | 
8 | C#Cc1c(-c2ccccc2)oc2cc(O)c(C(=O)O)cc12 | 50 µM | 31 µM | > 50 µM |  |  |  |  |  |  | 
